# Assay results taken from patent publication EP0252983B1, “SALTS OF N-(VINYLOXIETHYL)DITHIOCARBAMIC ACID, METHOD OF OBTAINING THEREOF AND […] ON THEM” (priority 1985, dated 1987).
# Assays:
# Geotrichum candidum Link = assay: Mycelial growth inhibition on agar (contact activity); assay type: cell-based; settings: Tabelle 11
# Procedure: (§1) Die Prüfungen werden nach dem Verfahren zur Ermittlung der Kontaktaktivität durchgeführt. Man verwendet das in Wasser gelöste Kalium-N-(vinyloxyäthyl)dithiocarbamat, führt es in ein Nährmedium ein und vergießt auf Petri-Schalen. Nach 24 Stunden wird mit Pilzmyzelium nach einem Stichverfahren geimpft. Dann temperiert man die Schalen innerhalb von 5 Tagen bei einer zwischen 24 und 26 °C liegenden Temperatur und mißt den Durchmesser von Pilzkolonien, ermittelt den Prozentsatz der Hemmung des Myzelwachstums (S) ausgehend von Angaben am 5. Tag nach der Abbott-Formel [drawing 13] worin dc für den Durchmesser der Pilzkolonien, de für den Durchmesser von Pilzkolonien in der Schale stehen, wo ein die zu prüfenden Stoffe enthaltendes Medium vorhanden ist. Dieses Verfahren zur Ermittlung der mikrobiologischen Aktivität ist in anderen Beispielen verwendet.
# (§2) Die Pilzkulturen werden auf Würzeagar gezüchtet. Ergebnisse, erhalten bei der Prüfung der fungiziden Aktivität gegen reine Kulturen von Mikroorganismen, welche Bioschädigungen hervorrufen, sind in der Tabelle 1 dargestellt.
# Walrotiela subiculesa = assay: as above; assay type: cell-based; settings: Tabelle 11
# Procedure: as §1, §2
# Penicillium charlesii = assay: as above; assay type: cell-based; settings: Tabelle 11
# Procedure: as §1, §2
# Penicillium chrysogenum = assay: as above; assay type: cell-based; settings: Tabelle 11
# Procedure: as §1, §2
# Cladosporium resinae = assay: as above; assay type: cell-based; settings: Tabelle 11
# [1] = Solubility in water (descriptive); assay type: physicochemical
# Acremonium cowum = assay: Mycelial growth inhibition on agar (contact activity); assay type: cell-based; settings: Tabelle 11
# Acremonium charticola = assay: as above; assay type: cell-based; settings: Tabelle 11
# Pseudomonas = assay: Bactericidal activity on agar (concentration of complete growth inhibition); assay type: cell-based; settings: % bezogen auf den Wirkstoff; am 5. Tag
# Procedure: (§3) Geprüft wird die bakterizide Aktivität von Kalium-, Natrium-, Zink- und Kupfersalzen der N-(Vinyloxyäthyl)dithiocarbamidsäure gegen Bakterien der Gattungen Bacillus, Micrococcus, Pseudomonas, Escherichia und Xantomonas.
# (§4) Man stellt wäßrige Stofflösungen verschiedener Konzentration her, die so berechnet werden, daß die Stoffkonzentration in der Petri-Schale bei der Gabe von 1 ml Lösung in das geschmolzene Nährmedium (45 bis 50 °C) zwischen 0,003 und 25 % (bezogen auf den Wirkstoff) schwankt. Nach 18 bis 24 Stunden bringt man auf die Oberfläche des Nährmediums 0,1 ml wäßrige Suspension eintägiger reiner Kulturen von Bakterien auf und verteilt sie gleichmäßig. In Kontrollschalen verteilt sich 0,1 ml Wasser über die Oberfläche des Nährmediums. Die Inkubation erfolgt bei 37 °C innerhalb von 5 Tagen. Die Wirksamkeit der Stoffe wird nach dem Auftreten des Bakterienwachstums auf der Oberfläche des Nährmediums eingeschätzt. Die Prüfergebnisse sind in der Tabelle 13 dargestellt.
# Xantomonas = assay: as above; assay type: cell-based; settings: % bezogen auf den Wirkstoff; am 5. Tag
# Procedure: as §3, §4
# Bacillus = assay: as above; assay type: cell-based; settings: % bezogen auf den Wirkstoff; am 5. Tag
# Procedure: as §3, §4
# Micrococcus = assay: as above; assay type: cell-based; settings: % bezogen auf den Wirkstoff; am 5. Tag
# Procedure: as §3, §4
# Escherichia = assay: as above; assay type: cell-based; settings: % bezogen auf den Wirkstoff; am 5. Tag
# Procedure: as §3, §4
# [2] = Storage stability (descriptive); assay type: physicochemical
# [3] = system: Cladosporium cladosporioides; assay: Mycelial growth inhibition on agar (contact activity); assay type: cell-based; settings: Tabelle 11
# [4] = Konzentration des Präparats 0,01 %
# [5] = Konzentration des Präparats 0,02 %
# [6] = Konzentration des Präparats 0,05 %
# [7] = Konzentration des Präparats 0,10 %
# [8] = Konzentration des Präparats 0,005 %
substance,measurement,setting,value
Kupfer-bis-(N-vinyloxyäthyldithiocarbamat),Myzelhemmung in %,Geotrichum candidum Link; [4],100%
same,Myzelhemmung in %,Geotrichum candidum Link; [5],100%
same,Myzelhemmung in %,Geotrichum candidum Link; [6],100%
same,Myzelhemmung in %,Geotrichum candidum Link; [7],100%
same,Myzelhemmung in %,Geotrichum candidum Link; [8],100%
same,Myzelhemmung in %,Walrotiela subiculesa; [4],0%
same,Myzelhemmung in %,Walrotiela subiculesa; [5],10%
same,Myzelhemmung in %,Walrotiela subiculesa; [6],37%
same,Myzelhemmung in %,Walrotiela subiculesa; [7],100%
same,Myzelhemmung in %,Walrotiela subiculesa; [8],0%
same,Myzelhemmung in %,Penicillium charlesii; [4],30%
same,Myzelhemmung in %,Penicillium charlesii; [5],80%
same,Myzelhemmung in %,Penicillium charlesii; [6],100%
same,Myzelhemmung in %,Penicillium charlesii; [7],100%
same,Myzelhemmung in %,Penicillium charlesii; [8],15%
same,Myzelhemmung in %,Penicillium chrysogenum; [4],25%
same,Myzelhemmung in %,Penicillium chrysogenum; [5],36%
same,Myzelhemmung in %,Penicillium chrysogenum; [6],70%
same,Myzelhemmung in %,Penicillium chrysogenum; [7],100%
same,Myzelhemmung in %,Penicillium chrysogenum; [8],10%
same,Myzelhemmung in %,Cladosporium resinae; [4],50%
same,Myzelhemmung in %,Cladosporium resinae; [5],80%
same,Myzelhemmung in %,Cladosporium resinae; [6],90%
same,Myzelhemmung in %,Cladosporium resinae; [7],100%
same,Myzelhemmung in %,Cladosporium resinae; [8],34%
same,Löslichkeit in Wasser,[1],unlöslich
same,Myzelhemmung in %,Acremonium cowum; [4],100%
same,Myzelhemmung in %,Acremonium cowum; [5],100%
same,Myzelhemmung in %,Acremonium cowum; [6],100%
same,Myzelhemmung in %,Acremonium cowum; [7],100%
same,Myzelhemmung in %,Acremonium cowum; [8],100%
same,Myzelhemmung in %,Acremonium charticola; [4],96%
same,Myzelhemmung in %,Acremonium charticola; [5],100%
same,Myzelhemmung in %,Acremonium charticola; [6],100%
same,Myzelhemmung in %,Acremonium charticola; [7],100%
same,Myzelhemmung in %,Acremonium charticola; [8],70%
same,"Konzentrationen, welche das Bakterienwachstum völlig (100 %) hemmen",Pseudomonas,"0,15%"
same,"Konzentrationen, welche das Bakterienwachstum völlig (100 %) hemmen",Xantomonas,"0,15%"
same,"Konzentrationen, welche das Bakterienwachstum völlig (100 %) hemmen",Bacillus,"0,15%"
same,"Konzentrationen, welche das Bakterienwachstum völlig (100 %) hemmen",Micrococcus,"0,15%"
same,"Konzentrationen, welche das Bakterienwachstum völlig (100 %) hemmen",Escherichia,"0,15%"
same,Lagerbeständigkeit,[2],lagerbeständig
same,Myzelhemmung in %,[3]; [4],36%
same,Myzelhemmung in %,[3]; [5],65%
same,Myzelhemmung in %,[3]; [6],80%
same,Myzelhemmung in %,[3]; [7],100%
same,Myzelhemmung in %,[3]; [8],15%
